Legend:
Assay in all cases: AUC of viability dose-response curve (% viability x log10 dose units); higher = less sensitive
Conditions in all cases: 48 h
[1] = test system: NOMO1
How it was run: (§1)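 Over 48 h at 37°C, leukemia cells in 1536-well plates (500 or 1000 cells/well), adapted to each medium, received library compounds in DMSO at 11 threefold doses from 47 μM to 0.79 nM. CellTiter-Glo One luminescence, normalised per plate to DMSO and cell-free wells, was fitted by a four-parameter log-logistic function of log10 dose. The area under the curve was then integrated by trapezoidal rule, after scaling curves above full viability and removing those that failed quality control.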

[2] = test system: P12-Ichikawa
How it was run: as §1

[3] = test system: SEM cells
How it was run: as §1

[4] = RPMI 5 mM glucose + 10% dialyzed FBS

Structure (SMILES)	AUC of viability dose-response curve ([1]; HPLM + 10% dialyzed FBS)	AUC of viability dose-response curve ([1]; RPMI 5 mM glucose + 10% FBS)	AUC of viability dose-response curve [1, 4]	AUC of viability dose-response curve ([2]; HPLM + 10% dialyzed FBS)	AUC of viability dose-response curve ([2]; RPMI 5 mM glucose + 10% FBS)	AUC of viability dose-response curve [2, 4]	AUC of viability dose-response curve ([3]; HPLM + 10% dialyzed FBS)	AUC of viability dose-response curve ([3]; RPMI 5 mM glucose + 10% FBS)	AUC of viability dose-response curve [3, 4]
COc1cc(NCc2ccc3nc(N)nc(N)c3c2C)cc(OC)c1OC	347	397	380	346	383	350	345	370	336
OC1=CC=C(C=C1)C/2=C/C3=C(OC2)C=C(O)C=C3	368	411	418	354	356	349	355	358	362
CO[C@H]1CCC(O[C@H]2C[C@H]([C@]3(C)CC[C@]4(C[C@H](O)[C@@H](C)[C@@H]([C@@H](C)/C=C(\C)C(=O)[C@H](C)C[C@H](C)C(=O)[O-])O4)O3)O[C@]3(O[C@@H]([C@H]4O[C@@](O)(CO)[C@H](C)C[C@@H]4C)C[C@@H]3C)[C@@H]2C)O[C@@H]1C (stereo partly drawn)	405	449	415	353	366	376	368	352	344
COc1ccc(CCC(=O)c2c(O)cc(O[C@@H]3O[C@H](CO)[C@@H](O)[C@H](O)[C@H]3O[C@@H]3O[C@@H](C)[C@H](O)[C@@H](O)[C@H]3O)cc2O)cc1O	413	426	425	458	442	463	464	455	465
NC1=NC(=O)N2CC12 (stereo not drawn)	367	350	352	400	369	349	312	314	281
Oc1cc(-c2nc(-c3ccccc3)[nH]c2-c2ccncc2)ccc1Cl	394	451	420	438	424	419	464	461	467
CCC(C)CCCCC(=O)N[C@@H](CCN)C(=O)NC(C(=O)N[C@H](CCN)C(=O)N[C@@H]1CCNC(=O)C([C@@H](C)O)NC(=O)[C@@H](CCN)NC(=O)[C@@H](CCN)NC(=O)[C@@H](CC(C)C)NC(=O)[C@H](Cc2ccccc2)NC(=O)[C@H](CCN)NC1=O)[C@@H](C)O (stereo partly drawn)	457	451	470	461	457	445	429	471	434
Cc1ccc([C@@H]2O[C@H](CO)[C@@H](O)[C@H](O)[C@H]2O)cc1Cc1ccc(-c2ccc(F)cc2)s1	467	468	472	465	467	465	475	467	468
NC(=O)c1cccc(-c2cc(Nc3ccc(OC(F)(F)F)cc3)ncn2)c1	457	436	428	469	466	460	441	464	423
O=C1NC(=O)/C(=C/c2ccc3nccnc3c2)S1	457	444	439	464	443	453	441	441	428
Nc1n[nH]c2nnc(-c3c(-c4ccccc4)nn4ccccc34)cc12	378	354	379	404	403	429	446	449	455
CC1(C)SCCN([S+](=O)([O-])c2ccc(OCC#CCO)cc2)[C@H]1C(=O)NO	462	437	450	456	454	438	449	413	439
C=CC(=O)Nc1cc2c(Nc3ccc(F)c(Cl)c3)ncnc2cc1C#CC(C)(C)N1CCN(C)CC1	382	395	387	395	395	383	360	357	363
CCCCCNC(=N)N/N=C/c1c[nH]c2ccc(OC)cc12	440	442	441	429	429	436	426	424	428
CN(C)c1nc(Cc2ccc(NC(=O)c3ccc(C(F)(F)F)cc3)cc2)nc(N(C)C)c1CC(=O)O	452	432	451	471	465	461	473	445	470
O=C(c1cncc(Br)c1)N1CCC(N2CCCC2)CC1	438	450	450	463	463	459	469	464	463
CN1CCc2c(c3ccccc3n2Cc2ccc(C(=O)NO)cc2)C1	373	358	397	401	370	377	348	364	310

— the supplement of paper PMC11451515
